{
  "source": "patent US11572590B2",
  "about": "“Methods for evaluating tumor cell spheroids using 3D microfluidic cell culture device” (Dana-Farber Cancer Institute, Inc., priority 2017, dated 2023)",
  "experiment_in_all_cases": "SelectScreen Kinase Profiling, single point inhibition and IC50 for off-target kinases",
  "format_in_all_cases": "biochemical",
  "key": {"[1]": {"target": "off-target kinases (Homo sapiens, UniProt P00519, G250E)", "details": "ABL1 G250E, ATP Km app, ZLYTE", "description": "(§1) Biochemical single point inhibition and IC50 concentrations for TBK1, IKKε (IKBKE), and off-target kinases were determined at ThermoFisher Scientific using SelectScreen Kinase Profiling Services (Madison, Wis., USA) (Tables S4A and S4B-1-7). To determine cellular potency, the human colorectal cancer carcinoma cell line HCT116 (ATCC, Manassas, Va.) was maintained in T175 flasks in complete RPMI medium; RPMI 1640 supplemented with 10% FBS, 1× Penicillin-Streptomycin solution and 1×MEM (non-essential amino acids). HCT116 cells were grown to 90-95% confluency in T175 flasks containing complete RPMI medium and transfected in bulk using Lipofectamine 2000 (Invitrogen, Carlsbad, Calif.) with 70 μg of ISG54-luciferase reporter plasmid (Elim Biopharmaceuticals Inc., Hayward, Calif.). The reporter plasmid contains a luciferase gene expression cassette under the transcriptional regulation of the promoter of the human interferon stimulated gene 54 (ISG54). Transfection of the cells was allowed to take place for 6 hours, after which the cells were harvested by treatment with 0.25% trypsin EDTA (Corning Inc., Corning, N.Y.). Trypsinized cells were added to 384-well poly-d-lysine treated black clear bottom tissue culture assay plates (Greiner Bio-One GmbH, Kremsmünster, Austria) at a density of 20,000 cells/well in 80 μL of complete RPMI medium and incubated overnight. After 16-18 hours post-transfection, the assay plates were washed with PBS (Corning Inc., Corning, N.Y.), followed by addition of 80 μL/well of serum-free RPMI 1640 medium containing 1× Penicillin-Streptomycin solution, 1×MEM and 350 nL of DMSO or titrations of Compound 1. Compound 1 titrations were generated by 1.5-fold dilution steps in two overlapping serial dilution series to generate a 40-point compound dose range. After incubation at 37° C. for 1 hour, the cells were stimulated with Poly(I:C) (InvivoGen, San Diego, Calif.) at a final concentration of 15 μg/mL in Optimem media (Life Technologies, Rockville, Md.). The assay plates were incubated for 5 hours at 37° C., followed by addition of One-Glo luciferase firefly reagent (Promega, Madison, Wis.) at 1:1 volume/well and luminescence was measured in an EnVision Multilabel Plate Reader (PerkinElmer, Santa Clara, Calif.). The EC50 values were calculated from the fit of the dose-response curves to a four-parameter equation. All EC50 values represent geometric mean values of a minimum of four determinations."}, "[2]": {"target": "off-target kinases (Homo sapiens, UniProt P04049, Y340D/Y341D)", "description": "as §1"}, "[3]": {"target": "off-target kinases (Homo sapiens, UniProt P04629)", "sequence (P04629 33-796)": "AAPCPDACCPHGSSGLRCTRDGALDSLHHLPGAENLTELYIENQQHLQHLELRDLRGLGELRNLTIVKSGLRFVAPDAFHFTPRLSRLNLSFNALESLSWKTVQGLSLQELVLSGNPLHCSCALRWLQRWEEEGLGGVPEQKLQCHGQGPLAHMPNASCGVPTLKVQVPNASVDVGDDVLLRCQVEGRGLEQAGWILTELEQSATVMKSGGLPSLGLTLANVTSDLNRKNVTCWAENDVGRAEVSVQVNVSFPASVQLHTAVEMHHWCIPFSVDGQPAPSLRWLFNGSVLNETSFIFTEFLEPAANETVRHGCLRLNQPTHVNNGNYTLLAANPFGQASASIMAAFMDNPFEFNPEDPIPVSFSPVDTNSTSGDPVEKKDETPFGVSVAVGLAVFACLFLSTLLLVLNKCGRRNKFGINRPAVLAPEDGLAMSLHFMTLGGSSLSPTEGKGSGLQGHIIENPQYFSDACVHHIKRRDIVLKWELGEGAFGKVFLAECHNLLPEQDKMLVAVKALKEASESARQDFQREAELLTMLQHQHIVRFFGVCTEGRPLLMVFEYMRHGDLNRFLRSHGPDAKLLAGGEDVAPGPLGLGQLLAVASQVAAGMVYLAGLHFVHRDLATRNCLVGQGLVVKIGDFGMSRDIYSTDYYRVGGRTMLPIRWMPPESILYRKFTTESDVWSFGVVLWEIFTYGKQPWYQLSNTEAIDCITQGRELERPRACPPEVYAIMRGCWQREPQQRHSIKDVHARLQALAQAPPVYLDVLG", "details": "NTRK1 (TRKA), ZLYTE, ATP Km app", "description": "as §1"}, "[4]": {"target": "off-target kinases (Homo sapiens, UniProt P16234, V561D)", "sequence (P16234 24-1089 V561D)": "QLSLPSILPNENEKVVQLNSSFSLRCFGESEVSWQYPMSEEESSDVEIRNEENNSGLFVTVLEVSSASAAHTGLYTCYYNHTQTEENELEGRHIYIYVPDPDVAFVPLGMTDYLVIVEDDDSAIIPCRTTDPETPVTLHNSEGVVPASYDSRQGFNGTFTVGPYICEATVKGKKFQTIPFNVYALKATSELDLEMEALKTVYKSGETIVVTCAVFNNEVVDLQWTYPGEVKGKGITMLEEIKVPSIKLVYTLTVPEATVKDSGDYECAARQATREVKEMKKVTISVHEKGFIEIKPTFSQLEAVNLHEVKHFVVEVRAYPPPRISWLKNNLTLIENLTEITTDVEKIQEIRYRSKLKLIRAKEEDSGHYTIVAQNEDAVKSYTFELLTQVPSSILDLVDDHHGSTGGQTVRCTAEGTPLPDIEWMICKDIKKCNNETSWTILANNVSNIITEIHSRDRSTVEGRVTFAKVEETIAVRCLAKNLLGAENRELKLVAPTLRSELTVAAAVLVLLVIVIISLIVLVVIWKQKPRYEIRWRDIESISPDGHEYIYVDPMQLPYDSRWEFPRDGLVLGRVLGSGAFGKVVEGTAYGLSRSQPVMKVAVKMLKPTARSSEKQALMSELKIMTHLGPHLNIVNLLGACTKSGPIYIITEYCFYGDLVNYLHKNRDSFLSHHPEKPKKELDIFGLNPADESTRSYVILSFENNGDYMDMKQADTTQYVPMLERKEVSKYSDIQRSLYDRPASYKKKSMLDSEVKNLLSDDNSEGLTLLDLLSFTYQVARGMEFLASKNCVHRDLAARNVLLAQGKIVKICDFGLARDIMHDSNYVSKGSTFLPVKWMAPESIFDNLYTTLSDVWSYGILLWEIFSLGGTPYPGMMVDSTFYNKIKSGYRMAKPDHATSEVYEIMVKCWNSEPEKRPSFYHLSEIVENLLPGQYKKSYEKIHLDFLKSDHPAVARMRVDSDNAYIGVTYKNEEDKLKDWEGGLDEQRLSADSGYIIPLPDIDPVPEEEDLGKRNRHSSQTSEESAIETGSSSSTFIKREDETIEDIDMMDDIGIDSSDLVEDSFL", "details": "PDGFRA V561D, ATP Km app, ZLYTE", "description": "as §1"}, "[5]": {"target": "off-target kinases (Homo sapiens, UniProt P19784)", "sequence (P19784 whole entry)": "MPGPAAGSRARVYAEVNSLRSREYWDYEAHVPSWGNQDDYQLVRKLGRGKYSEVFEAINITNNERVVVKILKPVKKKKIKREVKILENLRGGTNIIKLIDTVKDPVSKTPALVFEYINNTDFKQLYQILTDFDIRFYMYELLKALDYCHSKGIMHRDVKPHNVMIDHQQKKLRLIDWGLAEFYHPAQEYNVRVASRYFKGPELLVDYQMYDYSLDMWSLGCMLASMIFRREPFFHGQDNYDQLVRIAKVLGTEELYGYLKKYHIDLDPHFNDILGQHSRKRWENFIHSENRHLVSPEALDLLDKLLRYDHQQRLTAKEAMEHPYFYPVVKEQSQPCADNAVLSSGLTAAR", "details": "CSNK2A2 (CK2 alpha 2), ZLYTE, ATP Km app", "description": "as §1"}, "[6]": {"target": "off-target kinases (Homo sapiens, UniProt P22607)", "sequence (P22607 23-806)": "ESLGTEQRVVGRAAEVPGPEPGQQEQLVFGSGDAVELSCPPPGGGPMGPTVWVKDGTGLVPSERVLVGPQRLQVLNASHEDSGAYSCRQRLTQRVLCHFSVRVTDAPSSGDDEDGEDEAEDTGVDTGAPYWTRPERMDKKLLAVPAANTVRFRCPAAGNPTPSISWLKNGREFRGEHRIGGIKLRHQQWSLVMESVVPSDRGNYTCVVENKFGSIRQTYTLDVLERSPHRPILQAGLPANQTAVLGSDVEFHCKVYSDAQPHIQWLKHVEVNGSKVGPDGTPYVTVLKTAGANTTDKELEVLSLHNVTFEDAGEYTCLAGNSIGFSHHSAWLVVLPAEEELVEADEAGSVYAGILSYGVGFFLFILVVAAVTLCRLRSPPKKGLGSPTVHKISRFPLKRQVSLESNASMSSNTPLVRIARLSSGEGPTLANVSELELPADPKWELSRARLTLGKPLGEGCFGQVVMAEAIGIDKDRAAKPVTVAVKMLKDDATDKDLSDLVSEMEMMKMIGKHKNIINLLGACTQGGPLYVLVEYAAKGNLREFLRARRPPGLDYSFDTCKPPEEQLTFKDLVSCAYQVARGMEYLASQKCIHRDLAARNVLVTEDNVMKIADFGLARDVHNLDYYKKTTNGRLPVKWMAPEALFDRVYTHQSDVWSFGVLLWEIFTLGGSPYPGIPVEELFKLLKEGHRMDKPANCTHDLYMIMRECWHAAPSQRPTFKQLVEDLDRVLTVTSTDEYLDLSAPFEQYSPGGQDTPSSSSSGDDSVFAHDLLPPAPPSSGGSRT", "details": "FGFR3, ZLYTE, ATP Km app", "description": "as §1"}, "[7]": {"target": "off-target kinases (Homo sapiens, UniProt P22694)", "details": "PRKACB (PRKAC beta), LanthaScreen Binding", "description": "as §1"}, "[8]": {"target": "T1, off-target kinases (Homo sapiens, UniProt P35626)", "T1 sequence (P35626 1-688)": "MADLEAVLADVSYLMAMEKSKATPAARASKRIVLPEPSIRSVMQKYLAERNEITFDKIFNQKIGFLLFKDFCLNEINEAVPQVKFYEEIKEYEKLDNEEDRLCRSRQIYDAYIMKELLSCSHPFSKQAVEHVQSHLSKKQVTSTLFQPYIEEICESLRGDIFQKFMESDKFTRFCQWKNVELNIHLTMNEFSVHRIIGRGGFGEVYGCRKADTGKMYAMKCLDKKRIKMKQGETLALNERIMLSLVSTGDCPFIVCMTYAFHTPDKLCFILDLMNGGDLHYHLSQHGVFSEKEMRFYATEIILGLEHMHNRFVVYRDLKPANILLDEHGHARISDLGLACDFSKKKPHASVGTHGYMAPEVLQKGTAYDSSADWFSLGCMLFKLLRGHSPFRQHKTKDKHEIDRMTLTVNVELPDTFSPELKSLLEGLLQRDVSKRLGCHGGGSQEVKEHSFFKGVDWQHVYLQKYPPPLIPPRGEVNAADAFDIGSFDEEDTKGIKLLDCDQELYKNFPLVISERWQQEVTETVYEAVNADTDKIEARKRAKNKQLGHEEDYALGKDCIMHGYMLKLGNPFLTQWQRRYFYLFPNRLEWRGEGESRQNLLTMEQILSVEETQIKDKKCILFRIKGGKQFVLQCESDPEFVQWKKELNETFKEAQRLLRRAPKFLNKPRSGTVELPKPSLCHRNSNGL", "details": "ADRBK2 (GRK3), ZLYTE, ATP Km app", "description": "as §1"}, "[9]": {"target": "off-target kinases (Homo sapiens, UniProt Q9UM73, R1275Q)", "sequence (Q9UM73 19-1620 R1275Q)": "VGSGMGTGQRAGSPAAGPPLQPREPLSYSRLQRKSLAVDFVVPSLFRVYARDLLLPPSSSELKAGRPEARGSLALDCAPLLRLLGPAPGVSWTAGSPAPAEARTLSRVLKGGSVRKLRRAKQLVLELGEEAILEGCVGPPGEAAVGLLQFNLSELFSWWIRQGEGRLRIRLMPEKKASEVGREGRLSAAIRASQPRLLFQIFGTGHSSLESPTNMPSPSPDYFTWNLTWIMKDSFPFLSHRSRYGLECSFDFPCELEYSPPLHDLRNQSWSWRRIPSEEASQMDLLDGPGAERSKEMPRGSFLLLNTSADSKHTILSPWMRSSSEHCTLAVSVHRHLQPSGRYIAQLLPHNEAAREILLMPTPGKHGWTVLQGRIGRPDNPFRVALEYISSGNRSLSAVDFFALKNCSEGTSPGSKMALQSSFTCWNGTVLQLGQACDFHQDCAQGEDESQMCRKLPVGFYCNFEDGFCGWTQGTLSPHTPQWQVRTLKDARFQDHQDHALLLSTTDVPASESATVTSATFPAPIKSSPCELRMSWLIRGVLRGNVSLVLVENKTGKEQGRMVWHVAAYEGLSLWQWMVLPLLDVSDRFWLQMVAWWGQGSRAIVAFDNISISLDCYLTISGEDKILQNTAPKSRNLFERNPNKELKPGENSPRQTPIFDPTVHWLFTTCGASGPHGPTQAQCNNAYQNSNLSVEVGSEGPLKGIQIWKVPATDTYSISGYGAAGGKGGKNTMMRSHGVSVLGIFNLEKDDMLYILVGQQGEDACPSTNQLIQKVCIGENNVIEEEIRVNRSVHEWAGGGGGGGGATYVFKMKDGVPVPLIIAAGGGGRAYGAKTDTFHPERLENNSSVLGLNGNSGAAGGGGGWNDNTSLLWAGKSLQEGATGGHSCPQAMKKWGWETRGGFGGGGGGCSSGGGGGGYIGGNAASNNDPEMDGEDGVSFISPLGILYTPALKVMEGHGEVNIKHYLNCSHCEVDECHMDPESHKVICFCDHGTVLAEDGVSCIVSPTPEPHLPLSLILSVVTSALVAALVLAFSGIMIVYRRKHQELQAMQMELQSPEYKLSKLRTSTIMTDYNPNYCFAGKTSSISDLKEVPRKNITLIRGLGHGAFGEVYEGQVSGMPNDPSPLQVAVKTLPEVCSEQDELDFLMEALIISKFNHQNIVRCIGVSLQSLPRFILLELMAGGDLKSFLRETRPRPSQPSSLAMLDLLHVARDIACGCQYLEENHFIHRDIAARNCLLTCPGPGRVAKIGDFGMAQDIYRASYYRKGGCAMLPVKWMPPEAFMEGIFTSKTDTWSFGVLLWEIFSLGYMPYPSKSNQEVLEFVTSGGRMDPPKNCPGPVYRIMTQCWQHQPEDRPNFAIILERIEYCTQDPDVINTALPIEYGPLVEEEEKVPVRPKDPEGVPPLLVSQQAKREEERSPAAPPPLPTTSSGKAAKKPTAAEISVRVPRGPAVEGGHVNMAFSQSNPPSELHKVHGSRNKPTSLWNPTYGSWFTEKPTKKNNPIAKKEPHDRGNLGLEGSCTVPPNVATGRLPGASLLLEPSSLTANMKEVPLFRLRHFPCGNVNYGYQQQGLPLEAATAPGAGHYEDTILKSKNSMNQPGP", "details": "ALK R1275Q (mutant), LanthaScreen Binding", "description": "as §1"}},
  "note": "Where two headings read alike, the source gives them in different places.",
  "data": [
    {"compound": "N#Cc1cc(-c2ncnc(Nc3ccc(N4CCN(C5COC5)CC4)cc3)n2)ccc1OC1CCOCC1", "note": "[Compound 1, 5-(4-((4-(4-(oxetan-3-yl)piperazin-1-yl)phenyl)amino)-1,3,5-triazin-2-yl)-2-((tetrahydro-2H-pyran-4-yl)oxy)benzonitrile]", "values": [
      {"measurement": "inhibition", "setting": "[1]; read-out: % Inhibition 1", "value": 60, "unit": "%"},
      {"measurement": "inhibition", "setting": "[1]; read-out: % Inhibition 2", "value": 61, "unit": "%"},
      {"measurement": "inhibition", "setting": "[1]; read-out: % Inhibition Avg", "value": 60, "unit": "%"},
      {"measurement": "inhibition", "setting": "[2]; RAF1 (cRAF) Y340D Y341D (mutant), ZLYTE, ATP 100, read-out: % Inhibition 1", "value": 5, "unit": "%"},
      {"measurement": "inhibition", "setting": "[2]; RAF1 (cRAF) Y340D Y341D (mutant), ZLYTE, ATP 100, read-out: % Inhibition 2", "value": 3, "unit": "%"},
      {"measurement": "inhibition", "setting": "[2]; RAF1 (cRAF) Y340D Y341D (mutant), ZLYTE, ATP 100, read-out: % Inhibition Avg", "value": 4, "unit": "%"},
      {"measurement": "inhibition", "setting": "[2]; RAF1 (cRAF) Y340D Y341D, mutant y, LanthaScreen Binding, read-out: % Inhibition 1", "value": 15, "unit": "%"},
      {"measurement": "inhibition", "setting": "[2]; RAF1 (cRAF) Y340D Y341D, mutant y, LanthaScreen Binding, read-out: % Inhibition 2", "value": 20, "unit": "%"},
      {"measurement": "inhibition", "setting": "[2]; RAF1 (cRAF) Y340D Y341D, mutant y, LanthaScreen Binding, read-out: % Inhibition Avg", "value": 18, "unit": "%"},
      {"measurement": "inhibition", "setting": "[3]; read-out: % Inhibition 1", "value": 16, "unit": "%"},
      {"measurement": "inhibition", "setting": "[3]; read-out: % Inhibition 2", "value": 20, "unit": "%"},
      {"measurement": "inhibition", "setting": "[3]; read-out: % Inhibition Avg", "value": 18, "unit": "%"},
      {"measurement": "inhibition", "setting": "[4]; read-out: % Inhibition 1", "value": 85, "unit": "%"},
      {"measurement": "inhibition", "setting": "[4]; read-out: % Inhibition 2", "value": 81, "unit": "%"},
      {"measurement": "inhibition", "setting": "[4]; read-out: % Inhibition Avg", "value": 83, "unit": "%"},
      {"measurement": "inhibition", "setting": "[5]; read-out: % Inhibition 1", "value": 32, "unit": "%"},
      {"measurement": "inhibition", "setting": "[5]; read-out: % Inhibition 2", "value": 30, "unit": "%"},
      {"measurement": "inhibition", "setting": "[5]; read-out: % Inhibition Avg", "value": 31, "unit": "%"},
      {"measurement": "inhibition", "setting": "[6]; read-out: % Inhibition 1", "value": 6, "unit": "%"},
      {"measurement": "inhibition", "setting": "[6]; read-out: % Inhibition 2", "value": 4, "unit": "%"},
      {"measurement": "inhibition", "setting": "[6]; read-out: % Inhibition Avg", "value": 5, "unit": "%"},
      {"measurement": "inhibition", "setting": "[7]; read-out: % Inhibition 1", "value": 16, "unit": "%"},
      {"measurement": "inhibition", "setting": "[7]; read-out: % Inhibition 2", "value": 18, "unit": "%"},
      {"measurement": "inhibition", "setting": "[7]; read-out: % Inhibition Avg", "value": 17, "unit": "%"},
      {"measurement": "inhibition", "setting": "[8]; read-out: % Inhibition 1", "value": 6, "unit": "%"},
      {"measurement": "inhibition", "setting": "[8]; read-out: % Inhibition 2", "value": 4, "unit": "%"},
      {"measurement": "inhibition", "setting": "[8]; read-out: % Inhibition Avg", "value": 5, "unit": "%"},
      {"measurement": "inhibition", "setting": "[9]; read-out: % Inhibition 1", "value": 0, "unit": "%"},
      {"measurement": "inhibition", "setting": "[9]; read-out: % Inhibition 2", "value": 7, "unit": "%"},
      {"measurement": "inhibition", "setting": "[9]; read-out: % Inhibition Avg", "value": 4, "unit": "%"}
    ]}
  ]
}
